Source: patent US20240349726A1, “SUBSTITUTED 1,2,4-THIADIAZOLYL NICOTINAMIDES, SALTS OR N-OXIDES THEREOF AND THEIR USE AS HERBICIDALLY ACTIVE SUBSTANCES” (Bayer Aktiengesellschaft, priority 2021, published 2024)

What was measured:
Type in all cases: in vivo
Matricaria inodora [1] = experiment: Herbicidal pre-emergence action, MATIN; conditions: visual grading after ca. 3 weeks vs untreated controls
Description: (§1) Seeds of mono- and dicotyledonous weed plants were sown in plastic pots (double sowings with one species of mono- and one species of dicotyledonous weed plants per pot), in sandy loam, and covered with soil. The compounds according to the invention, formulated in the form of wettable powders (WP) or as emulsifiable concentrates (EC), were applied to the surface of the covering soil as an aqueous suspension or as an emulsion, with the addition of 0.5% of an additive, at an application rate of 600 litres of water per hectare (converted). Following treatment, the pots were placed in a greenhouse and kept under optimum growth conditions for the test plants. The visual grading of the damage to the test plants is carried out after ca. 3 weeks in comparison to untreated controls (herbicidal effect in percent (%): 100% effect=plants have died, 0% effect=as control plants). Seeds of mono- and dicotyledonous weed plants were sown in plastic pots (double sowings with one species of mono- and one species of dicotyledonous weed plants per pot), in sandy loam, and covered with soil. The compounds according to the invention, formulated in the form of wettable powders (WP) or as emulsifiable concentrates (EC), were applied to the surface of the covering soil as an aqueous suspension or as an emulsion, with the addition of 0.5% of an additive, at an application rate of 600 litres of water per hectare (converted). Following treatment, the pots were placed in a greenhouse and kept under optimum growth conditions for the test plants. The visual grading of the damage to the test plants is carried out after ca. 3 weeks in comparison to untreated controls (herbicidal effect in percent (%): 100% effect=plants have died, 0% effect=as control plants).

Kochia scoparia [2] = experiment: Herbicidal pre-emergence action, KCHSC; conditions: visual grading after ca. 3 weeks vs untreated controls
Description: as §1

Kochia scoparia [3] = experiment: Herbicidal post-emergence action, KCHSC; conditions: assessed visually after ca. 3 weeks vs untreated controls
Description: (§2) Seeds of mono- and dicotyledonous weed plants were sown in plastic pots (double sowings with one species of mono- and one species of dicotyledonous weed plants per pot), in sandy loam, covered with soil and grown under controlled growth conditions. 2 to 3 weeks after sowing, the test plants were sprayed in the single-leaf stage. The compounds according to the invention, formulated in the form of wettable powders (WP) or as emulsifiable concentrates (EC), were sprayed onto the green plant parts as an aqueous suspension or as an emulsion, with the addition of 0.5% of an additive, at an application rate of 600 litres of water per hectare (converted). The test plants were placed in the greenhouse for ca. 3 weeks under optimum growth conditions, and then the effect of the preparations is assessed visually in comparison with untreated controls (herbicidal effect in percent (%): 100% effect=plants have died, 0% effect=as control plants). […]

Veronica persica [4] = experiment: Herbicidal post-emergence action, VERPE; conditions: assessed visually after ca. 3 weeks vs untreated controls
Description: as §2

Stellaria media [5] = experiment: Herbicidal pre-emergence action, STEME; conditions: visual grading after ca. 3 weeks vs untreated controls
Description: as §1

Stellaria media [6] = experiment: Herbicidal post-emergence action, STEME; conditions: assessed visually after ca. 3 weeks vs untreated controls
Description: as §2

Amaranthus retroflexus [7] = experiment: Herbicidal pre-emergence action, AMARE; conditions: visual grading after ca. 3 weeks vs untreated controls
Description: as §1

Poa annua [8] = experiment: Herbicidal post-emergence action, POAAN; conditions: assessed visually after ca. 3 weeks vs untreated controls
Description: as §2

Digitaria sanguinalis = experiment: Herbicidal pre-emergence action, DIGSA; conditions: 1280 g/ha, visual grading after ca. 3 weeks vs untreated controls
Description: (§3) Seeds of mono- and dicotyledonous weed plants were sown in plastic pots (double sowings with one species of mono- and one species of dicotyledonous weed plants per pot), in sandy loam, and covered with soil. The compounds according to the invention, formulated in the form of wettable powders (WP) or as emulsifiable concentrates (EC), were applied to the surface of the covering soil as an aqueous suspension or as an emulsion, with the addition of 0.5% of an additive, at an application rate of 600 litres of water per hectare (converted). Following treatment, the pots were placed in a greenhouse and kept under optimum growth conditions for the test plants. The visual grading of the damage to the test plants is carried out after ca. 3 weeks in comparison to untreated controls (herbicidal effect in percent (%): 100% effect=plants have died, 0% effect=as control plants).

Lolium rigidum [9] = experiment: Herbicidal pre-emergence action, LOLRI; conditions: visual grading after ca. 3 weeks vs untreated controls
Description: as §1

Poa annua [10] = experiment: Herbicidal pre-emergence action, POAAN; conditions: visual grading after ca. 3 weeks vs untreated controls
Description: as §1

Lolium rigidum [11] = experiment: Herbicidal post-emergence action, LOLRI; conditions: 1280 g/ha, assessed visually after ca. 3 weeks vs untreated controls
Description: as §2

Alopecurus myosuroides [12] = experiment: Herbicidal post-emergence action, ALOMY; conditions: assessed visually after ca. 3 weeks vs untreated controls
Description: as §2

Matricaria inodora [13] = experiment: Herbicidal post-emergence action, MATIN; conditions: assessed visually after ca. 3 weeks vs untreated controls
Description: as §2

Echinochloa crus-galli [14] = experiment: Herbicidal pre-emergence action, ECHCG; conditions: 1280 g/ha, visual grading after ca. 3 weeks vs untreated controls
Description: as §3

Setaria viridis [15] = experiment: Herbicidal pre-emergence action, SETVI; conditions: 1280 g/ha, visual grading after ca. 3 weeks vs untreated controls
Description: as §3

Alopecurus myosuroides [16] = experiment: Herbicidal pre-emergence action, ALOMY; conditions: 1280 g/ha, visual grading after ca. 3 weeks vs untreated controls
Description: as §3

Amaranthus retroflexus [17] = experiment: Herbicidal post-emergence action, AMARE; conditions: assessed visually after ca. 3 weeks vs untreated controls
Description: as §2

Abutilon theophrasti [18] = experiment: Herbicidal post-emergence action, ABUTH; conditions: 1280 g/ha, assessed visually after ca. 3 weeks vs untreated controls
Description: as §2

Veronica persica [19] = experiment: Herbicidal pre-emergence action, VERPE; conditions: 1280 g/ha, visual grading after ca. 3 weeks vs untreated controls
Description: as §1

Setaria viridis [20] = experiment: Herbicidal post-emergence action, SETVI; conditions: 1280 g/ha, assessed visually after ca. 3 weeks vs untreated controls
Description: (§4) Seeds of mono- and dicotyledonous weed plants were sown in plastic pots (double sowings with one species of mono- and one species of dicotyledonous weed plants per pot), in sandy loam, covered with soil and grown under controlled growth conditions. 2 to 3 weeks after sowing, the test plants were sprayed in the single-leaf stage. The compounds according to the invention, formulated in the form of wettable powders (WP) or as emulsifiable concentrates (EC), were sprayed onto the green plant parts as an aqueous suspension or as an emulsion, with the addition of 0.5% of an additive, at an application rate of 600 litres of water per hectare (converted). The test plants were placed in the greenhouse for ca. 3 weeks under optimum growth conditions, and then the effect of the preparations is assessed visually in comparison with untreated controls (herbicidal effect in percent (%): 100% effect=plants have died, 0% effect=as control plants).

Echinochloa crus-galli [21] = experiment: Herbicidal post-emergence action, ECHCG; conditions: 1280 g/ha, assessed visually after ca. 3 weeks vs untreated controls
Description: as §4

Abutilon theophrasti [22] = experiment: Herbicidal pre-emergence action, ABUTH; conditions: 1280 g/ha, visual grading after ca. 3 weeks vs untreated controls
Description: as §3

SMILES	herbicidal effect MATIN (Matricaria inodora [1]; 1280 g/ha)	herbicidal effect KCHSC (Kochia scoparia [2]; 1280 g/ha)	herbicidal effect KCHSC (Kochia scoparia [3]; 1280 g/ha)	herbicidal effect VERPE (Veronica persica [4]; 320 g/ha)	herbicidal effect VERPE (Veronica persica [4]; 1280 g/ha)	herbicidal effect STEME (Stellaria media [5]; 320 g/ha)	herbicidal effect STEME (Stellaria media [5]; 1280 g/ha)	herbicidal effect STEME (Stellaria media [6]; 320 g/ha)	herbicidal effect STEME (Stellaria media [6]; 1280 g/ha)	herbicidal effect AMARE (Amaranthus retroflexus [7]; 1280 g/ha)	herbicidal effect POAAN (Poa annua [8]; 320 g/ha)	herbicidal effect POAAN (Poa annua [8]; 1280 g/ha)	herbicidal effect LOLRI (Lolium rigidum [9]; 1280 g/ha)	herbicidal effect POAAN (Poa annua [10]; 1280 g/ha)	herbicidal effect MATIN (Matricaria inodora [1]; 320 g/ha)	herbicidal effect LOLRI (Lolium rigidum [11])	herbicidal effect MATIN (Matricaria inodora [13]; 1280 g/ha)	herbicidal effect SETVI (Setaria viridis [15])	herbicidal effect AMARE (Amaranthus retroflexus [17]; 320 g/ha)	herbicidal effect AMARE (Amaranthus retroflexus [17]; 1280 g/ha)	other results
O=C(Nc1ncns1)c1c(C(F)(F)F)ccnc1C1CC1 [Example I-005]	100%	100%	90%	100%	100%	100%	100%	90%	90%	100%	100%	100%	100%	100%	–	–	–	–	–	–	herbicidal effect DIGSA (Digitaria sanguinalis): 90%; herbicidal effect POAAN (Poa annua [10]; 320 g/ha): 100%
O=C(Nc1nc(Cl)ns1)c1c(C(F)(F)F)ccnc1F [Example I-009, N-(3-chloro-1,2,4-thiadiazol-5-yl)-2-fluoro-4-(trifluoromethyl)pyridine-3-carboxamide]	100%	100%	100%	100%	100%	100%	100%	100%	100%	100%	90%	100%	90%	90%	100%	90%	100%	90%	100%	100%	herbicidal effect KCHSC (Kochia scoparia [2]; 320 g/ha): 90%; herbicidal effect KCHSC (Kochia scoparia [3]; 320 g/ha): 100%; herbicidal effect ALOMY (Alopecurus myosuroides [12]; 320 g/ha): 90%; herbicidal effect ALOMY (Alopecurus myosuroides [12]; 1280 g/ha): 100%; herbicidal effect MATIN (Matricaria inodora [13]; 320 g/ha): 100%; herbicidal effect ECHCG (Echinochloa crus-galli [14]): 90%; herbicidal effect ALOMY (Alopecurus myosuroides [16]): 100%; herbicidal effect AMARE (Amaranthus retroflexus [7]; 320 g/ha): 90%; herbicidal effect ABUTH (Abutilon theophrasti [18]): 90%; herbicidal effect VERPE (Veronica persica [19]): 90%; herbicidal effect SETVI (Setaria viridis [20]): 90%
CC(C)c1ccnc(F)c1C(=O)Nc1ncns1 [Example I-025]	100%	90%	–	–	90%	90%	90%	90%	90%	100%	–	–	100%	–	100%	90%	90%	90%	90%	100%	herbicidal effect ECHCG (Echinochloa crus-galli [21]): 90%; herbicidal effect AMARE (Amaranthus retroflexus [7]; 320 g/ha): 90%; herbicidal effect LOLRI (Lolium rigidum [9]; 320 g/ha): 90%; herbicidal effect ABUTH (Abutilon theophrasti [22]): 100%
